This note sets out measurements from ChEMBL document CHEMBL6114963, “Discovery and preclinical evaluations of drug candidate DA-0157 capable of overcoming EGFR drug-resistant mutation C797S and EGFR/ALK co-mutations” (Eur J Med Chem, 2025).

For one data set, the system named is NCI-H3122. Kind of data set: Antiproliferative activity against human NCI-H3122 cells harbouring EML4-ALK assessed as inhibition of cell growth incubated for 72 hrs by CellTiter-Glo Luminescent Cell Viability Assay. The format is functional, cell-based. The settings on record: NCI-H3122, 72 h. A general note: ATP-based viability assays read luminescence as a measure of living cells.

The test system of data set [1] is BaF3. As to the kind of experiment: Antiproliferative activity against mouse BaF3 cells harboring EML4-ALK-L1196M mutant assessed as inhibition of cell growth incubated for 72 hrs by CellTiter-Glo assay. The format is functional, cell-based. As to conditions: BaF3, 72 h.
Data set [2] is described as follows: Antitumor activity against patient derived LU2445 lung cancer cells harbouring EML4-ALK model assessed as tumor growth inhibition po dose administered for 25 days by vernier caliper based analysis relative to control. The format is functional, Homo sapiens. The settings on record: time 25 day.
Data set [3] relates to BaF3. As to the kind of experiment: Antiproliferative activity against mouse BaF3 cells harboring EML4-ALK assessed as inhibition of cell growth incubated for 72 hrs by CellTiter-Glo assay. The settings on record: BaF3, 72 h. The format is functional, cell-based.
The test system of data set [4] is BaF3. Kind of data set: Antiproliferative activity against mouse BaF3 cells harbouring EML4-ALK-C1156Y mutant assessed as inhibition of cell growth incubated for 72 hrs by CellTiter-Glo Luminescent Cell Viability Assay. The format is functional, cell-based. As to conditions: BaF3, 72 h.
Data set [5] has as its system BaF3. As to the kind of experiment: Antitumor activity against mouse BaF3 cells harbouring EML-4-ALK-L1196M mutant allografted in female BALB/c nude mouse assessed as tumor growth inhibition at 100 mg/kg, po administered once daily for 11 days by vernier caliper based analysis relative to control. The format is functional, organism-based. As to conditions: time 11.0 day.

The subject of another data set is PC-9. As to the kind of experiment: Antiproliferative activity against human PC-9 cells harbouring EGFR del19/T790M/C797S mutant assessed as inhibition of cell growth incubated for 72 hrs by CellTiter-Glo Luminescent Cell Viability Assay. The format is functional, cell-based. As to conditions: PC-9, 72 h.
The next data set deals with A-431. As to the kind of experiment: Antiproliferative activity against human A-431 cells harbouring wild-type EGFR assessed as inhibition of cell growth incubated for 72 hrs by CellTiter-Glo Luminescent Cell Viability Assay. The format is functional, cell-based. The settings on record: A-431, 72 h.
Data set [6] in a line: Antiproliferative activity against human NCI-H1975 cells harbouring EGFR del19/T790M/C797S mutant assessed as inhibition of cell growth incubated for 72 hrs by CellTiter-Glo Luminescent Cell Viability Assay. The format is functional, cell-based. As to conditions: NCI-H1975, 72 h.
For data set [7], the system named is BaF3. As to the kind of experiment: Antiproliferative activity against mouse BaF3 cells harboring EGFR Del19/T790M/C797S mutant assessed as inhibition of cell growth incubated for 72 hrs by CellTiter-Glo assay. The format is functional, cell-based. The settings on record: BaF3, 72 h.
In data set [8] the test system is BaF3. As to the kind of experiment: Antiproliferative activity against mouse BaF3 cells harboring wild-type EGFR assessed as inhibition of cell growth incubated for 72 hrs by CellTiter-Glo assay. The settings on record: BaF3, 72 h. The format is functional, cell-based.
Data set [9] deals with BaF3. As to the kind of experiment: Antitumor activity against mouse BaF3 cells harbouring EML-4-ALK-L1196M mutant allografted in female BALB/c nude mouse assessed as tumor growth inhibition at 20 mg/kg, po administered once daily for 11 days by vernier caliper based analysis relative to control. The format is functional. The settings on record: BaF3, 264 h, time 11 day, read-out: TGI.

Data set [10] has as its system BaF3. As to the kind of experiment: Antitumor activity against mouse BaF3 cells harbouring EML-4-ALK-L1196M mutant allografted in female BALB/c nude mouse assessed as tumor growth inhibition at 25 mg/kg, po administered once daily for 11 days by vernier caliper based analysis relative to control. The settings on record: BaF3, 264 h, time 11 day, read-out: TGI. The format is functional.

Data set [11] deals with BaF3. Kind of data set: Antitumor activity against mouse BaF3 cells harbouring EML-4-ALK-L1196M mutant allografted in female BALB/c nude mouse assessed as tumor growth inhibition at 46 mg/kg, po administered once daily for 11 days by vernier caliper based analysis relative to control. The format is functional. The settings on record: BaF3, 264 h, time 11 day, read-out: TGI.

Data set [12] in a line: Potency index, ratio of Brigatinib IC50 to test compound IC50 for antiproliferative activity against mouse BaF3 cells harboring EGFR Del19/T790M/C797S mutant assessed as inhibition of cell growth incubated for 72 hrs by CellTiter-Glo assay. The format is functional.
The nature of data set [13]: Potency index, ratio of Brigatinib IC50 to test compound IC50 for antiproliferative activity against mouse BaF3 cells harboring EML4-ALK-L1196M mutant assessed as inhibition of cell growth incubated for 72 hrs by CellTiter-Glo assay. The format is functional.
The nature of data set [14]: Toxicity in male Sprague-Dawley rat assessed as animal death at 200 mg/kg, po administered for 14 days. The format is organism-based. The settings on record: in vivo, 336 h, time 14 day.
Data set [15] in a line: Toxicity in Sprague-Dawley rat blood assessed as adverse effect at 17.5 mg/kg, po administered once daily for 7 days. The format is organism-based. As to conditions: in vivo, 168 h, time 7 day.
The nature of data set [16]: Toxicity in male Sprague-Dawley rat assessed as animal death at 75 mg/kg, po administered for 14 days. The format is organism-based. The settings on record: in vivo, 336 h, time 14 day.
A short description of data set [17]: Toxicity in Sprague-Dawley rat assessed as maximum tolerated dose administered as single po dose measured for 14 days. The format is organism-based. As to conditions: in vivo, time 14 day.
Data set [18] relates to BaF3. Kind of data set: Antitumor activity against mouse BaF3 cells harbouring EML-4-ALK-L1196M mutant allografted in female BALB/c nude mouse assessed as tumor growth inhibition at 37 mg/kg, po administered once daily for 11 days by vernier caliper based analysis relative to control. The format is functional. As to conditions: BaF3, 264 h, time 11 day, read-out: TGI.
The nature of data set [19]: MRT (0 to infinity) in male Sprague-Dawley rat plasma at 10 mg/kg, po measured upto 72 hrs. The format is ADME, organism-based.
Data set [20] in a line: Toxicity in female Sprague-Dawley rat assessed as animal death at 200 mg/kg, po administered for 14 days. The format is organism-based. The settings on record: in vivo, 336 h, time 14 day.
Data set [21] in a line: AUC (0 to infinity) in male Sprague-Dawley rat plasma at 10 mg/kg, po measured upto 72 hrs. The format is ADME, organism-based.
Data set [22] is described as follows: Toxicity in female Sprague-Dawley rat assessed as animal death at 125 mg/kg, po administered for 14 days. The format is organism-based. As to conditions: in vivo, 336 h, time 14 day.
Data set [23] in a line: Toxicity in male Sprague-Dawley rat assessed as animal death at 125 mg/kg, po administered for 14 days. The format is organism-based. The settings on record: in vivo, 336 h, time 14 day.
Data set [24] in a line: Cmax in male Sprague-Dawley rat plasma at 10 mg/kg, po measured upto 72 hrs. The format is ADME, organism-based.
Data set [25] in a line: Toxicity in female Sprague-Dawley rat assessed as animal death at 75 mg/kg, po administered for 14 days. The format is organism-based. The settings on record: in vivo, 336 h, time 14 day.
Data set [26] is described as follows: Half life in male Sprague-Dawley rat plasma at 10 mg/kg, po measured upto 72 hrs. The format is ADME, organism-based.
Data set [27] is described as follows: Tmax in male Sprague-Dawley rat plasma at 10 mg/kg, po measured upto 72 hrs. The format is ADME, organism-based.

Usually IC50 stands for the point on the concentration scale where inhibition reaches its midpoint. As to `C[C@@H](Oc1cc(-c2cnn(C3CCNCC3)c2)cnc1N)c1c(Cl)ccc(F)c1Cl` [CRIZOTINIB], the IC50 worked out at 120 nM in the data set with NCI-H3122, 160 nM in the data set with BaF3 [1], 20 nM in the data set with BaF3 [3] and […] in the data set with BaF3 [4]. For the same molecule, the TGI in data set [2] is 18%; in the data set with BaF3 [5], “No effect”.

In the case of `C#Cc1cccc(Nc2ncnc3cc(OCCOC)c(OCCOC)cc23)c1` [ERLOTINIB], the IC50 worked out at 9510 nM in the data set on PC-9, 650 nM in the data set on A-431 and 4930 nM in data set [6].

`COc1cc(N2CCC(N3CCN(C)CC3)CC2)c(C)cc1Nc1ncc(Br)c(Nc2ccc(F)cc2P(C)(C)=O)n1`: the 50% inhibitory concentration (IC50) came to 19 nM in the data set with BaF3 [7], 17 nM in the data set with BaF3 [1], 9 nM with BaF3 [3] and 1080 nM with BaF3 [8].

For the molecule `COc1cc(N2CCC(N3CCN(C)CC3)CC2)ccc1Nc1ncc(Cl)c(Nc2ccc(C)cc2P(C)(C)=O)n1`, the half-inhibitory concentration (IC50) is 190 nM in the data set on BaF3 [7], 16 nM in the data set with BaF3 [1], 7 nM with BaF3 [3] and 1780 nM in the data set with BaF3 [8].

As to `CCc1cc2c(cc1N1CCC(N3CCOCC3)CC1)C(C)(C)c1[nH]c3cc(C#N)ccc3c1C2=O` [ALECTINIB], in the data set with BaF3 [9], the inhibition in vivo at 20 mg/kg was determined as 87.4%.

Take `COc1cc(N2CCC(N3CCN(C)CC3)CC2)c(C)cc1Nc1ncc(Br)c(Nc2ccc(Cl)cc2P(C)(C)=O)n1`: the concentration for half-maximal inhibition (IC50) was 5 nM with BaF3 [7], 25 nM in the data set on BaF3 [1], 12 nM with BaF3 [3] and 1030 nM in the data set on BaF3 [8].

Take `Cc1cc(Nc2ncc(Cl)c(Nc3ccccc3S(=O)(=O)C(C)C)n2)c(OC(C)C)cc1C1CCNCC1` [CERITINIB]: the inhibition in vivo at 25 mg/kg in the data set on BaF3 [10] is -3.8%.

On to `C=CC(=O)Nc1cc(Nc2nccc(-c3cn(C)c4ccccc34)n2)c(OC)cc1N(C)CCN(C)C` [OSIMERTINIB], for which the concentration for half-maximal inhibition (IC50) was found to be 790 nM with BaF3 [7]; 2850 nM in the data set on PC-9; 75 nM in the data set with BaF3 [8]; […] with A-431; 3360 nM in [6].

With `C[C@@H]1CN(C(=O)c2ccc(NC(=O)c3cc(O[C@H](C)c4c(Cl)ccc(F)c4Cl)c(N)nn3)cc2)C[C@H](C)N1` [ENSARTINIB], the inhibition in vivo at 46 mg/kg with BaF3 [11] was -32.4%.

Consider `COc1cc(N2CCC(N3CCN(C)CC3)CC2)c(C)cc1Nc1ncc(Cl)c(Nc2ccccc2P(C)(C)=O)n1`, for which the 50% inhibitory concentration (IC50) was 26 nM in the data set on BaF3 [7], 18 nM in the data set on BaF3 [1], 7 nM in the data set on BaF3 [3] and 820 nM with BaF3 [8]. For the same molecule, the Ratio in data set [12] came out at 7.

Regarding `C[C@H]1Oc2cc(cnc2N)-c2c(nn(C)c2C#N)CN(C)C(=O)c2ccc(F)cc21` [LORLATINIB], in the data set on BaF3 [9], the inhibition in vivo at 20 mg/kg turned out to be 129%.

`COc1cc(N2CCC(N3CCN(C)CC3)CC2)c(C)cc1Nc1ncc(Cl)c(Nc2ccc(C)cc2P(C)(C)=O)n1`: the IC50 in the data set on BaF3 [7] worked out at 22 nM; with BaF3 [1], 29 nM; in the data set with BaF3 [3], 14 nM; in the data set on BaF3 [8], 690 nM. In addition, the Ratio in [13] and in data set [12] was 8 in each case.

As usually defined, the MTD is the largest dose that counted as tolerated. Broadly, the MRT inf is a mean duration of stay, worked out from the concentration-time curve. By AUC(0-inf) is commonly meant total exposure, with the tail of the curve extrapolated. Broadly, the Cmax is the peak of the concentration-time curve. A word on the half-life: it is the time in which the quantity being followed falls by half. As usually defined, the Tmax is the time at which the peak concentration occurs. In the case of `COc1cc(N2CCC(N3CCN(C)CC3)CC2)ccc1Nc1ncc(Cl)c(Nc2ccccc2P(C)(C)=O)n1` [BRIGATINIB], the half-inhibitory concentration (IC50) in the data set with BaF3 [7] came out at 180 nM; in the data set with NCI-H3122, 14 nM; in the data set with BaF3 [1], 10 nM; in the data set on BaF3 [3], 4 nM; in the data set with BaF3 [4] it was 190 nM; in the data set on BaF3 [8] it was 1650 nM. For the same molecule, the Activity result in [14], in [15], in data set [16], in data set [20], in data set [22] and in data set [23] was “Toxic” in each case. Besides, the Activity entry in data set [25] is given as “Toxic”. Further, the maximum tolerated dose (MTD) at 336 h in [17] was 75 mg/kg. For the same molecule, in the data set on BaF3 [18], the inhibition in vivo at 37 mg/kg came out at 94.8%. This molecule also registered an MRT inf in data set [19] of 9.7 h. Besides, the AUC(0-inf) in [21] was 21600 ng·h/mL. The molecule further displayed a peak concentration (Cmax) in data set [24] of 1930 ng/mL. Moreover, the half-life in data set [26] is 18.6 h. The Tmax in data set [27] amounted to 3 h.

Regarding `COc1cc(N2CCC(N3CCN(C)CC3)CC2)c(Cl)cc1Nc1ncc(Br)c(Nc2ccc(C)cc2P(C)(C)=O)n1`, the 50% inhibitory concentration (IC50) was determined as 19 nM in the data set on BaF3 [7], 13 nM in the data set on BaF3 [1], 7 nM in the data set on BaF3 [3] and 600 nM with BaF3 [8].
